16 compounds from PubChem BioAssay AID248 (DTP/NCI, 2004) can be followed below.

The test system of this test is L1210 leukemia ip in BDF1 mice, survival T/C. Put plainly: NCI In Vivo Anticancer Drug Screen. Data for tumor model L1210 Leukemia (intraperitoneal) in B6D2F1 (BDF1) mice. The note with it: endpoint: mean survival time, higher = longer survival. Put shortly: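 Read-out is survival time, reported as the treated-group measurement over the vehicle-control measurement.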

Setting [1] is: dose: 100.0 mg/kg/injection, schedule: Q01DX001 (ip), vehicle: saline.
Where [2] appears, read: dose: 200.0 mg/kg/injection, schedule: Q01DX001 (ip), vehicle: saline.
The mark [3] stands for this setting: dose: 400.0 mg/kg/injection, schedule: Q01DX001 (ip), vehicle: saline.
[4] abbreviates: dose: 400.0 mg/kg/injection, schedule: Q01DX009 (ip), vehicle: saline.
Setting [5] is: dose: 100.0 mg/kg/injection, schedule: Q01DX009 (ip), vehicle: saline with Tween-80.
[6] abbreviates: dose: 200.0 mg/kg/injection, schedule: Q01DX009 (ip), vehicle: saline with Tween-80.
Setting [7] is: dose: 100.0 mg/kg/injection, schedule: Q04DX003 (ip), vehicle: saline with Tween-80.
Where [8] appears, read: dose: 200.0 mg/kg/injection, schedule: Q04DX003 (ip), vehicle: saline with Tween-80.
[9] abbreviates: dose: 400.0 mg/kg/injection, schedule: Q01DX009 (ip), vehicle: saline with Tween-80.
Setting [10] is: dose: 400.0 mg/kg/injection, schedule: Q04DX003 (ip), vehicle: saline with Tween-80.
The mark [11] stands for this setting: dose: 50.0 mg/kg/injection, schedule: Q01DX001 (ip), vehicle: saline.

Inconclusive results and toxic doses are left out.

In the case of `OC(c1ccc(Cl)cc1)c1ccc(Cl)cc1`, the T/C was 97 % of control (dose: 75.0 mg/kg/injection, schedule: Q01DX001 (ip), vehicle: acetone); 97 % of control (dose: 150.0 mg/kg/injection, schedule: Q01DX001 (ip), vehicle: acetone); 94 % of control (dose: 300.0 mg/kg/injection, schedule: Q01DX001 (ip), vehicle: acetone).

With `CC(C)(C)c1ccc(OS(=O)(=O)c2ccccc2[N+](=O)[O-])cc1`, the T/C reads like this: (dose: 100.0 mg/kg/injection, schedule: Q01DX001 (ip), vehicle: Klucel (hydroxypropylcellulose) (HPC)) 102 % of control; (dose: 200.0 mg/kg/injection, schedule: Q01DX001 (ip), vehicle: Klucel (hydroxypropylcellulose) (HPC)) 98 % of control; (dose: 400.0 mg/kg/injection, schedule: Q01DX001 (ip), vehicle: Klucel (hydroxypropylcellulose) (HPC)) 95 % of control.

Regarding `CCOP(=O)(/C=C/c1ccccc1)OCC`, the T/C is, setting by setting: (dose: 100.0 mg/kg/injection, schedule: Q04DX003 (ip), vehicle: saline) 109 % of control; (dose: 200.0 mg/kg/injection, schedule: Q04DX003 (ip), vehicle: saline) 98 % of control; (dose: 400.0 mg/kg/injection, schedule: Q04DX003 (ip), vehicle: saline) 87 % of control.

Turning to `O=[N+]([O-])c1cc(Cl)ccc1S(=O)(=O)/C=C/c1ccccc1`, the T/C reads like this: under setting [1], 104 % of control; (dose: 100.0 mg/kg/injection, schedule: Q01DX009 (ip), vehicle: saline) 94 % of control; under setting [2], 104 % of control; (dose: 200.0 mg/kg/injection, schedule: Q01DX009 (ip), vehicle: saline) 96 % of control; under setting [3], 100 % of control; under setting [4], 91 % of control.

With `CCCCCCCN(CCCCCCC)CC(O)c1cc2ccc(Cl)cc2c2ncccc12` (stereo not given), the T/C reads like this: (dose: 100.0 mg/kg/injection, schedule: Q01DX009 (sc), vehicle: olive oil, sesame oil, peanut oil) 109 % of control; (dose: 200.0 mg/kg/injection, schedule: Q01DX009 (sc), vehicle: olive oil, sesame oil, peanut oil) 108 % of control; (dose: 400.0 mg/kg/injection, schedule: Q01DX009 (sc), vehicle: olive oil, sesame oil, peanut oil) 95 % of control.

Take `CS(=O)(=O)OCC#CCOS(C)(=O)=O`: the T/C (dose: 8.0 mg/kg/injection, schedule: Q01DX Z (ip), vehicle: saline) is 100 % of control; the T/C (dose: 16.0 mg/kg/injection, schedule: Q01DX Z (ip), vehicle: saline) was 109 % of control; the T/C (dose: 32.0 mg/kg/injection, schedule: Q01DX Z (ip), vehicle: saline) is 105 % of control; the T/C (dose: 64.0 mg/kg/injection, schedule: Q01DX Z (ip), vehicle: saline) is 117 % of control.

With `CCCCCCCCCCc1cc2c([nH]1)C(=O)c1ccccc1C2=O`, the T/C runs as follows: (dose: 37.5 mg/kg/injection, schedule: Q01DX001 (ip), vehicle: Klucel (hydroxypropylcellulose) (HPC)) 86 % of control; (dose: 75.0 mg/kg/injection, schedule: Q01DX001 (ip), vehicle: Klucel (hydroxypropylcellulose) (HPC)) 89 % of control.

With `O=C1C(Cl)(Cl)CCCC1(Cl)Cl`, the T/C is 98 % of control (dose: 50.0 mg/kg/injection, schedule: Q01DX009 (ip), vehicle: saline with Tween-80); 105 % of control under setting [5]; 110 % of control under setting [6].

For `O=C(O)C1CCCCC1C(=O)Nc1ccccc1C(F)(F)F` (stereo not given), the T/C was 98 % of control under setting [5]; 105 % of control under setting [7]; 90 % of control under setting [6]; 100 % of control under setting [8]; 94 % of control under setting [9]; 100 % of control under setting [10].

`O=CCc1ccc2c(c1)OCO2`: the T/C is 92 % of control (dose: 200.0 mg/kg/injection, schedule: Q01DX001 (ip), vehicle: carboxymethylcellulose (CMC)) and 108 % of control (dose: 400.0 mg/kg/injection, schedule: Q01DX001 (ip), vehicle: carboxymethylcellulose (CMC)).

`Cc1[nH]ccc2cc3nc4ccccc4c3cc12`: the T/C runs as follows: under setting [11], 103 % of control; under setting [1], 104 % of control; under setting [2], 102 % of control; under setting [3], 103 % of control.

Regarding `CCCCCCCCCCCCCCC[n+]1ccc(C#N)cc1`, the T/C reads like this: (dose: 5.0 mg/kg/injection, schedule: Q01DX009 (ip), vehicle: acetone) 101 % of control; (dose: 10.0 mg/kg/injection, schedule: Q01DX001 (ip), vehicle: saline) 93 % of control; (dose: 10.0 mg/kg/injection, schedule: Q01DX009 (ip), vehicle: acetone) 100 % of control; (dose: 10.0 mg/kg/injection, schedule: Q04DX003 (ip), vehicle: saline) 101 % of control; (dose: 20.0 mg/kg/injection, schedule: Q01DX001 (ip), vehicle: saline) 93 % of control; (dose: 20.0 mg/kg/injection, schedule: Q04DX003 (ip), vehicle: saline) 94 % of control. Moreover, the T/C (dose: 40.0 mg/kg/injection, schedule: Q01DX001 (ip), vehicle: saline) is 98 % of control and the T/C (dose: 40.0 mg/kg/injection, schedule: Q04DX003 (ip), vehicle: saline) is 92 % of control.

`Clc1ccccc1CSc1ncnc2nc[nH]c12`: the T/C (dose: 16.0 mg/kg/injection, schedule: Q01DX Z (ip), vehicle: other) is 96 % of control; the T/C (dose: 31.0 mg/kg/injection, schedule: Q01DX Z (ip), vehicle: other) was 106 % of control; the T/C (dose: 40.0 mg/kg/injection, schedule: Q01DX009 (ip), vehicle: saline) is 120 % of control; the T/C (dose: 62.0 mg/kg/injection, schedule: Q01DX Z (ip), vehicle: other) is 112 % of control; the T/C (dose: 70.0 mg/kg/injection, schedule: Q01DX009 (ip), vehicle: saline) is 110 % of control; the T/C (dose: 187.0 mg/kg/injection, schedule: Q01DX Z (ip), vehicle: other) was 150 % of control. The T/C was 124 % of control (dose: 265.0 mg/kg/injection, schedule: Q01DX001 (ip), vehicle: acetone); 107 % of control (dose: 265.0 mg/kg/injection, schedule: Q01DX001 (ip), vehicle: saline); 94 % of control (dose: 300.0 mg/kg/injection, schedule: Q01DX009 (ip), vehicle: acetone); 123 % of control (dose: 300.0 mg/kg/injection, schedule: Q01DX009 (ip), vehicle: saline); 103 % of control (dose: 375.0 mg/kg/injection, schedule: Q01DX Z (ip), vehicle: other); 110 % of control under setting [3]. Besides, the T/C was 115 % of control under setting [4]; 91 % of control (dose: 450.0 mg/kg/injection, schedule: Q01DX009 (ip), vehicle: acetone); 86 % of control (dose: 500.0 mg/kg/injection, schedule: Q01DX Z (ip), vehicle: other).

As for `O=C(O)C1C2C=CC(C2)C1c1ccccc1` (stereo not given), the T/C by setting is: under setting [5], 101 % of control; under setting [7], 97 % of control; under setting [6], 97 % of control; under setting [8], 93 % of control; under setting [9], 98 % of control; under setting [10], 114 % of control.

`COc1ccc(CN2CCCN(Cc3ccc(OC)cc3OC)C2c2ccncc2)c(OC)c1`: the T/C reads like this: under setting [11], 94 % of control; under setting [1], 97 % of control; under setting [2], 105 % of control; under setting [3], 103 % of control.

As for `C#C/C(=N\Nc1ccc([N+](=O)[O-])cc1[N+](=O)[O-])c1ccccc1`, the T/C is 91 % of control (dose: 75.0 mg/kg/injection, schedule: Q04DX002 (ip), vehicle: saline with Tween-80); 102 % of control (dose: 150.0 mg/kg/injection, schedule: Q04DX002 (ip), vehicle: saline with Tween-80); 88 % of control (dose: 300.0 mg/kg/injection, schedule: Q04DX002 (ip), vehicle: saline with Tween-80).
